The target in assay [1] is T1, Dab2 SBP (Homo sapiens, UniProt P98082, Y38A).
T1 construct: pGEX6P1; vector residues GPLGS remain at N-terminus of cleaved peptide
T1 sequence (P98082 24-58 Y38A): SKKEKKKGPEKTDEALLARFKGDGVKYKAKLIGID
Nature of the assay: SPR, L1 sensorchip, sulfatide liposomes captured. The class given is binding. Particulars: apparent KD; peptide 1-80 µM over 100-nm DPPC:DPPE:cholesterol:sulfatide (1:1:1:4) liposomes; pH 7.4, 100 mM NaCl, room temperature; brain sulfatides of mixed acyl chains. Background: Surface plasmon resonance follows binding to a sensor surface in real time, without labels.

Assay [2] addresses T2, Dab2 SBP (Homo sapiens, UniProt P98082).
T2 construct: pGEX6P1; vector residues GPLGS remain at N-terminus of cleaved peptide
T2 sequence (P98082 24-58): T1 sequence (P98082 24-58 Y38A) with A15Y
As to the kind of experiment: SPR, L1 sensorchip, sulfatide liposomes captured. The format is binding. Particulars: apparent KD; peptide 1-80 µM over 100-nm DPPC:DPPE:cholesterol:sulfatide (1:1:1:4) liposomes; pH 7.4, 100 mM NaCl, room temperature; brain sulfatides of mixed acyl chains.

Substitutions are numbered along the chain they refer to.

As to sulfatide, the Kd on Dab2 SBP [1] stood at 77 ± 6.6 µM; on Dab2 SBP [2], 49.8 ± 5.4 µM.

The values above are taken from article PMC7421900, “Structural, in silico, and functional analysis of a Disabled-2-derived peptide for recognition of sulfatides” (Scientific Reports, 2020).
